According to patent US10196393B2, “JAK inhibitors containing a 4-membered heterocyclic amide” (THERAVANCE BIOPHARMA R&D IP, LLC, priority 2017, dated 2019):
Where two headings read alike, the source gives them in different places.

Key:
JAK3 = JAK3 (Homo sapiens (Human), UniProt P52333); assay: Biochemical JAK kinase assay (LanthaScreen), JAK3; settings: converted from pIC50 with Cheng-Prusoff equation
Experimental: (§1) Assay 1: Biochemical JAK Kinase Assays
(§2) A panel of four LanthaScreen JAK biochemical assays (JAK1, 2, 3 and Tyk2) were carried in a common kinase reaction buffer (50 mM HEPES, pH 7.5, 0.01% Brij-35, 10 mM MgCl2, and 1 mM EGTA). Recombinant GST-tagged JAK enzymes and a GFP-tagged STAT1 peptide substrate were obtained from Life Technologies.
(§3) Serially diluted compounds were pre-incubated with each of the four JAK enzymes and the substrate in white 384-well microplates (Corning) at ambient temperature for 1 h. ATP was subsequently added to initiate the kinase reactions in 10 μL total volume, with 1% DMSO. […] The plates were allowed to incubate at ambient temperature for 1 h before being read on the EnVision reader (Perkin Elmer).
(§4) For dose-response analysis, percent inhibition data were plotted vs. compound concentrations, and IC50 values were determined from a 4-parameter robust fit model with the Prism software (GraphPad Software). Results were expressed as pIC50 (negative logarithm of IC50) and subsequently converted to pKi (negative logarithm of dissociation constant, Ki) using the Cheng-Prusoff equation.

JAK2 = JAK2 (Homo sapiens (Human), UniProt O60674); assay: Biochemical JAK kinase assay (LanthaScreen), JAK2; settings: converted from pIC50 with Cheng-Prusoff equation
Experimental: as §1, §2, §3, §4

[1] = test system: Alternaria alternata-induced eosinophilic inflammation of the lung (BALF eosinophils); assay: Murine model of Alternaria alternata-induced eosinophilic inflammation of the lung; type: in vivo; settings: mouse, oropharyngeal aspiration 0.03-1.0 mg/mL, BALF 48 h after challenge; maximum statistically significant inhibition
Source text: Assay 5: Murine Model of Alternaria alternata-Induced Eosinophilic Inflammation of the Lung
Airway eosinophilia is a hallmark of human asthma. Alternaria alternata is a fungal aeroallergen that can exacerbate asthma in humans and induces eosinophilic inflammation in the lungs of mice (Havaux et al. Clin Exp Immunol. 2005 February; 139(2):179-88).
Seven- to nine-week old male C57 mice from Taconic were used in the study. On the day of study, animals were lightly anesthetized with isoflurane and administered either vehicle or test compound (0.03-1.0 mg/mL, 50 μL total volume over several breaths) via oropharyngeal aspiration. Animals were placed in lateral recumbency post dose and monitored for full recovery from anesthesia before being returned to their home cage. One hour later, animals were once again briefly anesthetized and challenged with either vehicle or alternaria extract (200 ug total extract delivered, 50 μL total volume) via oropharyngeal aspiration before being monitored for recovery from anesthesia and returned to their home cage. Forty-eight hours after alternaria administration, bronchoalveolar lavage fluid (BALF) was collected and eosinophils were counted in the BALF using the Advia 120 Hematology System (Siemens). […]

[2] = test system: IFNγ induced CXCL10 and CXCL9 secretion in EpiAirway tissue cultures; assay: Inhibition of IFNγ induced chemokines CXCL9 and CXCL10 in human 3D airway cultures; type: cell-based; settings: 192 h, Day 8, ±STDV
Experimental: (§5) Assay 7: Inhibition of IFNγ and IL-27 Induced Chemokines CXCL9 and CXCL10 in Human 3D Airway Cultures
(§6) EpiAirway tissue cultures were obtained from Mattek (AIR-100). Cultures were derived from asthmatic donors. In a cell culture insert, human derived tracheal/bronchial epithelial cells were grown and differentiated on a porous membrane support, allowing an air-liquid interface with warmed culture medium below the cells and a gaseous test atmosphere above. Tissues were cultured in maintenance media (Mattek, AIR-100-MM) in a 37° C., 5% CO2 humidified incubator. Four donors were tested. On Day 0, tissue cultures were treated with test compounds at 10 μM, 1 μM and/or 0.1 μM. Compounds were diluted in dimethyl sulfoxide (DMSO, Sigma) to a final concentration of 0.1%. DMSO at 0.1% was used as a vehicle control. Test compounds were incubated with cultures for 1 hour at 37° C., 5% CO2, followed by the addition of pre-warmed media containing IFNγ (R&D Systems) or IL-27 (R&D Systems) at a final concentration at 100 ng/ml. Tissue cultures were maintained for 8 days. Media was replaced every 2 days with fresh media containing compounds and IFNγ or IL-27. On Day 8, tissue cultures and supernatants were collected for analysis. Supernatant samples were assayed for CXCL10 (IP-10) and CXCL9 (MIG) using luminex analysis (EMD Millipore). Data is expressed as % Inhibition +/−standard deviation (±STDV). Percent inhibition was determined by compound inhibitory potency against IFNγ or IL-27 induced CXCL10 or CXCL9 secretion compared to vehicle treated cells. Data is the average from 3 or 4 donors. […] The compound of example 2 was able to inhibit IFNγ induced CXCL9 secretion by 93%±13 (at 10 μM) and 24%±49 (at 1 μM) when compared to vehicle.

[3] = test system: IL-27 induced CXCL10 and CXCL9 secretion in EpiAirway tissue cultures; assay: Inhibition of IL-27 induced chemokines CXCL9 and CXCL10 in human 3D airway cultures; type: cell-based; settings: 192 h, Day 8, ±STDV
Experimental: as §5, §6

[4] = read-out: % inhibition of IL-27 induced CXCL9 secretion
[5] = read-out: % inhibition of IL-27 induced CXCL10 secretion

JAK2, sequence (O60674 whole entry): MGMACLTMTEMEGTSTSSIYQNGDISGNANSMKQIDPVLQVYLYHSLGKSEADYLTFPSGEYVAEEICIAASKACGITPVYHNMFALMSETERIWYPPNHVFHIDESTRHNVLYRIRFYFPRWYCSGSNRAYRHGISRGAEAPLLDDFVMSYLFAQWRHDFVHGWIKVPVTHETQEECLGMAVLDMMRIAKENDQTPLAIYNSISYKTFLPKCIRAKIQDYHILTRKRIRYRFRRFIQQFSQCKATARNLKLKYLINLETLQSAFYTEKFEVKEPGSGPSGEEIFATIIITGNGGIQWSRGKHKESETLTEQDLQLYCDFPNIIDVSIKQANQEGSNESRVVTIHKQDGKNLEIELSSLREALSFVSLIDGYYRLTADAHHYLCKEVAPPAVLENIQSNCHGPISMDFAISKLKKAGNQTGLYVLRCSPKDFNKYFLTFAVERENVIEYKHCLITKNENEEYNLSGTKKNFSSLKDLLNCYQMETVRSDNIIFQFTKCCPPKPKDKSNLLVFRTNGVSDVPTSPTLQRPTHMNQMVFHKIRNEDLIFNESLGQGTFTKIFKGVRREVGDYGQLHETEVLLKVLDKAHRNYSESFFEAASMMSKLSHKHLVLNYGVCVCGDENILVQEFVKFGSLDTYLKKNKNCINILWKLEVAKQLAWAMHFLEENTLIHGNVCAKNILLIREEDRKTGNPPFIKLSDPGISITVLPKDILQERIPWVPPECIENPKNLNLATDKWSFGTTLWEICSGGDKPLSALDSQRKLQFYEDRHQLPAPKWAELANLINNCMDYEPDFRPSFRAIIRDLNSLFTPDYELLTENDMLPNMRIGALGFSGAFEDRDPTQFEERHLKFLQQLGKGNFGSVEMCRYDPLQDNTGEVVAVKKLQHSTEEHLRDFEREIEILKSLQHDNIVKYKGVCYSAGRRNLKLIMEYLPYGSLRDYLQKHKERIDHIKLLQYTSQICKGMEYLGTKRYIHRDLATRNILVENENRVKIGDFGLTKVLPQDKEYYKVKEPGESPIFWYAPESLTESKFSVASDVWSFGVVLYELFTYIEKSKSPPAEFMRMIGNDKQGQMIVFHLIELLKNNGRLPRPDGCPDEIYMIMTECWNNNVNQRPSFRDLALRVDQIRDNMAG
JAK3, sequence (P52333 whole entry): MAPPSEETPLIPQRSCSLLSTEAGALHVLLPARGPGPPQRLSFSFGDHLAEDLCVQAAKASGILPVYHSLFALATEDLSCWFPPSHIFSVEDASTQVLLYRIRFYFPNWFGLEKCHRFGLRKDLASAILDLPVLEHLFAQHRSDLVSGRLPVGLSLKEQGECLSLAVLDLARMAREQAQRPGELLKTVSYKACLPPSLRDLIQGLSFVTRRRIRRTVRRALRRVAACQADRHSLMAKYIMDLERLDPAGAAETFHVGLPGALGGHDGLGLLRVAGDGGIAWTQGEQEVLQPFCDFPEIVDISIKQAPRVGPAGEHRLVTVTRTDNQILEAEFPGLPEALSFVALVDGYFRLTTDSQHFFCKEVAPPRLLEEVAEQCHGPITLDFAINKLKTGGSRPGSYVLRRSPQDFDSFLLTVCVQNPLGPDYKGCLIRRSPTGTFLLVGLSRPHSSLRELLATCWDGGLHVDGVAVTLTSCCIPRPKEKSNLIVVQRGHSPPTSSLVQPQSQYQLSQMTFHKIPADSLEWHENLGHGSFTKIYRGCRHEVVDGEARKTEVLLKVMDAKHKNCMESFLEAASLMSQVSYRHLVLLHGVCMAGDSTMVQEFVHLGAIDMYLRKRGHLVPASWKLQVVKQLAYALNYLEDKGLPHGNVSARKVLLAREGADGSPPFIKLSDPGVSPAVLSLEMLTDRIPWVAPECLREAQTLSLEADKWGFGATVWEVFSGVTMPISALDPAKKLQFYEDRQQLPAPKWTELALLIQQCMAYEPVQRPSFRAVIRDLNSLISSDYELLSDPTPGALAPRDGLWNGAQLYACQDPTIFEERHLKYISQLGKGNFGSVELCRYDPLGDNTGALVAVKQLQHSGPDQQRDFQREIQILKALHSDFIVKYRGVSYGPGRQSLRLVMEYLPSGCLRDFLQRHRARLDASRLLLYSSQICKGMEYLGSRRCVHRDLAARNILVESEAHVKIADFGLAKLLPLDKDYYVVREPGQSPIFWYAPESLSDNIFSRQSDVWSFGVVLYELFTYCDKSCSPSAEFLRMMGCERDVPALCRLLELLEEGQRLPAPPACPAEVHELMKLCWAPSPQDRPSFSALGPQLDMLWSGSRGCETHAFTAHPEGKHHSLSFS

Structure (SMILES): CCc1cc(O)c(F)cc1-c1ccc2c(-c3nc4c([nH]3)CN(C(C)C)[C@H](C(=O)N3CC(N(C)C)C3)C4)n[nH]c2c1 [Example 2, (S)-(3-(dimethylamino)azetidin-1-yl)(2-(6-(2-ethyl-5-fluoro-4-hydroxyphenyl)-1H-indazol-3-yl)-5-isopropyl-4,5,6,7-tetrahydro-3H-imidazo[4,5-c]pyridin-6-yl)methanone]
- Ki (JAK3): 0.1 nM
- Ki (JAK2): 0.02 nM
- Percent Inhibition of Alternaria-induced BALF Eosinophils [1]: 74%
- inhibition at 0.1 µM ([2]; at 0.1 μM): 6%
- inhibition at 1 µM ([2]; at 1 μM): 24%
- inhibition at 10 µM ([2]; 3 or 4 donors, read-out: % inhibition of IFNγ induced CXCL10 secretion): 101%
- inhibition at 10 µM ([2]; read-out: % inhibition of IFNγ induced CXCL9 secretion): 93%
- inhibition at 0.1 µM [3, 4]: 57%
- inhibition at 0.1 µM [3, 5]: 69%
- inhibition at 1 µM [3, 4]: 97%
- inhibition at 1 µM [3, 5]: 101%
- inhibition at 10 µM [3, 4]: 100%
- inhibition at 10 µM [3, 5]: 108%
